# Measured values published in the supplement of paper PMC10307832.
# Experiments:
# Test in all cases: relative viability (nuclei count vs DMSO), 5 days (fraction); higher = more cells survive
# Hydroxychloroquine = compound: CCN(CCO)CCCC(C)Nc1ccnc2cc(Cl)ccc12 [Hydroxychloroquine]
# In short: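 Lung cancer cell lines in 1536-well plates were kept overnight at 37 °C, then pinned with five library-drug doses (not always all listed) spaced by √10 on vehicle-anchored plates. After 5 days without medium change, cells were fixed, permeabilised and Hoechst-stained in one step, imaged at 4×, and nuclei were counted with MetaXpress. Viability is treated-well nuclei divided by vehicle-well nuclei, taken as the median over plates. Plates passed only with control CV below 25% and at least one doubling.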
# [1] = compound: CCN(CCO)CCCC(C)Nc1ccnc2cc(Cl)ccc12 [Hydroxychloroquine] + CC1(C)CCC(c2ccc(Cl)cc2)=C(CN2CCN(c3ccc(C(=O)NS(=O)(=O)c4ccc(N[C@H](CCN5CCOCC5)CSc5ccccc5)c(S(=O)(=O)C(F)(F)F)c4)cc3)CC2)C1 [Navitoclax] (partner 0.5 µM)
# In short: (§1)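 Nuclei were stained with Hoechst during a one-step fixation (final 0.05% Triton X-100, 1% formaldehyde, 1 ug/ml Hoechst) carried out 5 days after dosing, then counted on 4× images. The cells, lung cancer lines in 1536-well plates, had been dosed by pin tool the day after seeding with one drug alone or a fixed anchor-drug dose plus five library-drug doses (not always all listed) in √10 steps. Relative viability is the nuclei count in treated wells divided by that in vehicle wells, and each value is the median of duplicate plates.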
# [2] = compound: CCN(CCO)CCCC(C)Nc1ccnc2cc(Cl)ccc12 [Hydroxychloroquine] + COc1cc2c(Oc3ccc(NC(=O)C4(C(=O)Nc5ccc(F)cc5)CC4)cc3F)ccnc2cc1OCCCN1CCOCC1 [Foretinib] (partner 0.25 µM)
# In short: as §1
# [3] = compound: CCN(CCO)CCCC(C)Nc1ccnc2cc(Cl)ccc12 [Hydroxychloroquine] + CS(=O)(=O)CCNCc1ccc(-c2ccc3ncnc(Nc4ccc(OCc5cccc(F)c5)c(Cl)c4)c3c2)o1 [Lapatinib] (partner 2 µM)
# In short: as §1
# [4] = compound: CCN(CCO)CCCC(C)Nc1ccnc2cc(Cl)ccc12 [Hydroxychloroquine] + CS(=O)(=O)N1CCN(Cc2cc3nc(-c4cccc5[nH]ncc45)nc(N4CCOCC4)c3s2)CC1 [Pictilisib] (partner 1 µM)
# In short: as §1
# [5] = compound: CCN(CCO)CCCC(C)Nc1ccnc2cc(Cl)ccc12 [Hydroxychloroquine] + C[C@@H](Oc1cc(-c2cnn(C3CCNCC3)c2)cnc1N)c1c(Cl)ccc(F)c1Cl [Crizotinib] (partner 1 µM)
# In short: as §1
# [6] = compound: CCN(CCO)CCCC(C)Nc1ccnc2cc(Cl)ccc12 [Hydroxychloroquine] + C[C@]1(O)C[C@@H](c2nc(-c3ccc4ccc(-c5ccccc5)nc4c3)c3c(N)nccn32)C1 [Linsitinib] (partner 1 µM)
# In short: as §1
# [7] = compound: CCN(CCO)CCCC(C)Nc1ccnc2cc(Cl)ccc12 [Hydroxychloroquine] + Cc1nc(NC(=O)N2CCC[C@H]2C(N)=O)sc1-c1ccnc(C(C)(C)C(F)(F)F)c1 [Alpelisib] (partner 2 µM)
# In short: as §1
# [8] = compound: CCN(CCO)CCCC(C)Nc1ccnc2cc(Cl)ccc12 [Hydroxychloroquine] + N=C(N)NC(=N)NCCc1ccccc1 [Phenformin] (partner 250 µM)
# In short: as §1
# [9] = compound: CCN(CCO)CCCC(C)Nc1ccnc2cc(Cl)ccc12 [Hydroxychloroquine] + Nc1ncn([C@H]2C[C@H](O)[C@@H](CO)O2)c(=O)n1 [Decitabine] (partner 2 µM)
# In short: as §1
# [10] = compound: CCN(CCO)CCCC(C)Nc1ccnc2cc(Cl)ccc12 [Hydroxychloroquine] + O=C(c1cc(Cc2n[nH]c(=O)c3ccccc23)ccc1F)N1CCN(C(=O)C2CC2)CC1 [Olaparib] (partner 8 µM)
# In short: as §1
# [11] = compound: CCN(CCO)CCCC(C)Nc1ccnc2cc(Cl)ccc12 [Hydroxychloroquine] + CC(=O)Nc1cccc(-n2c(=O)n(C3CC3)c(=O)c3c(Nc4ccc(I)cc4F)n(C)c(=O)c(C)c32)c1 [Trametinib] (partner 0.02 µM)
# In short: as §1
# [12] = compound: CCN(CCO)CCCC(C)Nc1ccnc2cc(Cl)ccc12 [Hydroxychloroquine] + CC(=O)c1c(C)c2cnc(Nc3ccc(N4CCNCC4)cn3)nc2n(C2CCCC2)c1=O [Palbociclib] (partner 0.5 µM)
# In short: as §1
# [13] = compound: CCN(CCO)CCCC(C)Nc1ccnc2cc(Cl)ccc12 [Hydroxychloroquine] + CCNC(=O)c1noc(-c2cc(C(C)C)c(O)cc2O)c1-c1ccc(CN2CCOCC2)cc1 [Luminespib] (partner 0.01 µM)
# In short: as §1
# [14] = compound: CCN(CCO)CCCC(C)Nc1ccnc2cc(Cl)ccc12 [Hydroxychloroquine] + COc1cccc2cc(-c3nc([C@H]4CC[C@H](C(=O)O)CC4)n4ncnc(N)c34)[nH]c12 [OSI-027] (partner 0.5 µM)
# In short: as §1
# [15] = compound: CCN(CCO)CCCC(C)Nc1ccnc2cc(Cl)ccc12 [Hydroxychloroquine] + Cc1cc(Nc2cc(N3CCN(C)CC3)nc(Sc3ccc(NC(=O)C4CC4)cc3)n2)n[nH]1 [Tozasertib] (partner 0.1 µM)
# In short: as §1
# [16] = compound: CCN(CCO)CCCC(C)Nc1ccnc2cc(Cl)ccc12 [Hydroxychloroquine] + Cc1nc(Nc2ncc(C(=O)Nc3c(C)cccc3Cl)s2)cc(N2CCN(CCO)CC2)n1 [Dasatinib] (partner 0.075 µM)
# In short: as §1
# [17] = compound: CCN(CCO)CCCC(C)Nc1ccnc2cc(Cl)ccc12 [Hydroxychloroquine] + NC(=O)Nc1cc(-c2cccc(F)c2)sc1C(=O)N[C@H]1CCCNC1 [AZD7762] (partner 0.2 µM)
# In short: as §1
# [18] = compound: CCN(CCO)CCCC(C)Nc1ccnc2cc(Cl)ccc12 [Hydroxychloroquine] + Nc1nc2[nH]cc(CCc3ccc(C(=O)N[C@@H](CCC(=O)O)C(=O)O)cc3)c2c(=O)[nH]1 [Pemetrexed] (partner 0.2 µM)
# In short: as §1
# [19] = compound: CCN(CCO)CCCC(C)Nc1ccnc2cc(Cl)ccc12 [Hydroxychloroquine] + O=C(CCCCCCC(=O)Nc1ccccc1)NO [Vorinostat] (partner 1 µM)
# In short: as §1
cell line,measurement,setting,value
A549,relative viability,Hydroxychloroquine; 0.5 µM,1.01
same,relative viability,Hydroxychloroquine; 1.581 µM,0.945
same,relative viability,Hydroxychloroquine; 5 µM,1.03
same,relative viability,Hydroxychloroquine; 15.81 µM,0.928
same,relative viability,Hydroxychloroquine; 50 µM,1.08
same,relative viability,[1]; first compound 0.5 µM,1.24
same,relative viability,[1]; first compound 1.581 µM,1.09
same,relative viability,[1]; first compound 5 µM,1.26
same,relative viability,[1]; first compound 15.81 µM,1.29
same,relative viability,[1]; first compound 50 µM,1.19
same,relative viability,[2]; first compound 0.5 µM,0.953
same,relative viability,[2]; first compound 1.581 µM,0.905
same,relative viability,[2]; first compound 5 µM,0.951
same,relative viability,[2]; first compound 15.81 µM,0.952
same,relative viability,[2]; first compound 50 µM,1.11
same,relative viability,[3]; first compound 0.5 µM,0.976
same,relative viability,[3]; first compound 1.581 µM,0.859
same,relative viability,[3]; first compound 5 µM,0.906
same,relative viability,[3]; first compound 15.81 µM,0.974
same,relative viability,[3]; first compound 50 µM,0.977
same,relative viability,[4]; first compound 0.5 µM,0.622
same,relative viability,[4]; first compound 1.581 µM,0.525
same,relative viability,[4]; first compound 5 µM,0.434
same,relative viability,[4]; first compound 15.81 µM,0.529
same,relative viability,[4]; first compound 50 µM,0.565
same,relative viability,[5]; first compound 0.5 µM,0.832
same,relative viability,[5]; first compound 1.581 µM,0.643
same,relative viability,[5]; first compound 5 µM,0.781
same,relative viability,[5]; first compound 15.81 µM,0.735
same,relative viability,[5]; first compound 50 µM,0.805
same,relative viability,[6]; first compound 0.5 µM,0.617
same,relative viability,[6]; first compound 1.581 µM,0.543
same,relative viability,[6]; first compound 5 µM,0.576
same,relative viability,[6]; first compound 15.81 µM,0.646
same,relative viability,[6]; first compound 50 µM,0.629
same,relative viability,[7]; first compound 0.5 µM,0.749
same,relative viability,[7]; first compound 1.581 µM,0.577
same,relative viability,[7]; first compound 5 µM,0.761
same,relative viability,[7]; first compound 15.81 µM,0.708
same,relative viability,[7]; first compound 50 µM,0.623
same,relative viability,[8]; first compound 0.5 µM,0.154
same,relative viability,[8]; first compound 1.581 µM,0.0895
same,relative viability,[8]; first compound 5 µM,0.15
same,relative viability,[8]; first compound 15.81 µM,0.14
same,relative viability,[8]; first compound 50 µM,0.154
same,relative viability,[9]; first compound 0.5 µM,0.264
same,relative viability,[9]; first compound 1.581 µM,0.208
same,relative viability,[9]; first compound 5 µM,0.267
same,relative viability,[9]; first compound 15.81 µM,0.196
same,relative viability,[9]; first compound 50 µM,0.391
same,relative viability,[10]; first compound 0.5 µM,0.332
same,relative viability,[10]; first compound 1.581 µM,0.297
same,relative viability,[10]; first compound 5 µM,0.355
same,relative viability,[10]; first compound 15.81 µM,0.323
same,relative viability,[10]; first compound 50 µM,0.371
NCI-H522,relative viability,Hydroxychloroquine; 0.5 µM,1.01
same,relative viability,Hydroxychloroquine; 1.581 µM,0.844
same,relative viability,Hydroxychloroquine; 5 µM,0.95
same,relative viability,Hydroxychloroquine; 15.81 µM,0.836
same,relative viability,Hydroxychloroquine; 50 µM,0.954
same,relative viability,[11]; first compound 0.5 µM,0.674
same,relative viability,[11]; first compound 5 µM,0.915
same,relative viability,[11]; first compound 15.81 µM,0.65
same,relative viability,[11]; first compound 50 µM,0.805
same,relative viability,[12]; first compound 0.5 µM,0.822
same,relative viability,[12]; first compound 5 µM,1.03
same,relative viability,[12]; first compound 15.81 µM,0.986
same,relative viability,[12]; first compound 50 µM,0.798
same,relative viability,[13]; first compound 0.5 µM,1.17
same,relative viability,[13]; first compound 1.581 µM,1.12
same,relative viability,[13]; first compound 5 µM,1.08
same,relative viability,[13]; first compound 15.81 µM,1.31
same,relative viability,[13]; first compound 50 µM,1.32
same,relative viability,[14]; first compound 0.5 µM,0.718
same,relative viability,[14]; first compound 1.581 µM,0.671
same,relative viability,[14]; first compound 5 µM,0.712
same,relative viability,[14]; first compound 15.81 µM,0.684
same,relative viability,[14]; first compound 50 µM,0.682
same,relative viability,[15]; first compound 0.5 µM,0.524
same,relative viability,[15]; first compound 1.581 µM,0.619
same,relative viability,[15]; first compound 5 µM,0.607
same,relative viability,[15]; first compound 15.81 µM,0.632
same,relative viability,[15]; first compound 50 µM,0.525
same,relative viability,[16]; first compound 0.5 µM,0.933
same,relative viability,[16]; first compound 1.581 µM,0.942
same,relative viability,[16]; first compound 5 µM,0.755
same,relative viability,[16]; first compound 15.81 µM,1.03
same,relative viability,[16]; first compound 50 µM,0.913
same,relative viability,[8]; first compound 0.5 µM,0.647
same,relative viability,[8]; first compound 1.581 µM,0.581
same,relative viability,[8]; first compound 5 µM,0.702
same,relative viability,[8]; first compound 15.81 µM,0.717
same,relative viability,[8]; first compound 50 µM,0.623
same,relative viability,[17]; first compound 0.5 µM,0.712
same,relative viability,[17]; first compound 5 µM,0.674
same,relative viability,[17]; first compound 15.81 µM,0.974
same,relative viability,[17]; first compound 50 µM,0.907
same,relative viability,[18]; first compound 0.5 µM,1.02
same,relative viability,[18]; first compound 5 µM,1.39
same,relative viability,[18]; first compound 15.81 µM,0.974
same,relative viability,[18]; first compound 50 µM,0.98
same,relative viability,[9]; first compound 0.5 µM,0.689
same,relative viability,[9]; first compound 5 µM,0.566
same,relative viability,[9]; first compound 15.81 µM,0.676
same,relative viability,[9]; first compound 50 µM,0.59
same,relative viability,[19]; first compound 0.5 µM,0.832
same,relative viability,[19]; first compound 5 µM,0.882
same,relative viability,[19]; first compound 15.81 µM,0.904
same,relative viability,[19]; first compound 50 µM,1.01
same,relative viability,[10]; first compound 0.5 µM,0.578
same,relative viability,[10]; first compound 5 µM,0.68
same,relative viability,[10]; first compound 15.81 µM,0.642
same,relative viability,[10]; first compound 50 µM,0.608
